Assay results taken from US5273974A, “Condensed heterocyclic compounds, their production and use” (priority 1990, dated 1993).
Counter-ions that a name gives are not always drawn.

Target: T1, Acetylcholinesterase (Rattus norvegicus, UniProt P37136)
T1 construct: S1 fraction of a homogenate of male Wistar rat cerebral cortex; from tissue; host or cells: male Wistar rat cerebral cortex, S1 fraction of homogenate
Test: Cholinesterase inhibitory activity assayed with (acetyl-[3H])-acetylcholine (S1 fraction of male Wistar rat cerebral cortex homogenate)
Format: biochemical
Details: (acetyl-[3H])-acetylcholine substrate, 30 minutes incubation
Procedure: The cholinesterase inhibitory activity of the compound of the present invention was assayed with (acetyl-[3H])-acetylcholine. Thus, using the S1 fraction of a homogenate of male Wistar rat cerebral cortex as the cholinesterase source, (acetyl-[3H])-acetylcholine and the compound of the invention were added as the substrate and the test substance, respectively, and the mixture was incubated for 30 minutes. After the reaction was terminated, a toluene-based scintillant was added and, after shaking, the reaction product [3H]-acetic acid which was transferred to the toluene layer was determined with a scintillation counter to estimate the cholinesterase activity.

T1 sequence (P37136 32-614): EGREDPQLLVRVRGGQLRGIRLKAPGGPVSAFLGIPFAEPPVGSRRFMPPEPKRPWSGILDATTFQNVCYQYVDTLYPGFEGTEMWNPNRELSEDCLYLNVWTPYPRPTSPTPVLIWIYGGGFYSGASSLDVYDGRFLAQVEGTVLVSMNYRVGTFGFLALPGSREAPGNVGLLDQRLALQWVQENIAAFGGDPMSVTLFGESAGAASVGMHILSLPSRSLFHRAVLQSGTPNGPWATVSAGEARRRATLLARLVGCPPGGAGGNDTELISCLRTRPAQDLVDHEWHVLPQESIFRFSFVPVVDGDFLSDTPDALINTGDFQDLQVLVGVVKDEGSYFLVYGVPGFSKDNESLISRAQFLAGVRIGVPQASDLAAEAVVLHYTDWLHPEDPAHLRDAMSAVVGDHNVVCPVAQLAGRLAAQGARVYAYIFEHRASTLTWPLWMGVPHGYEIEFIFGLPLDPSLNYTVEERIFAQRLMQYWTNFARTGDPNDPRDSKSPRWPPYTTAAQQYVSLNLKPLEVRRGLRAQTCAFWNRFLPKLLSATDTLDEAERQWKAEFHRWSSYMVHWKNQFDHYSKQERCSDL

SMILES | IC50 [µM]
CCCN1CCc2cc(C(=O)CCC3CCN(Cc4ccccc4)CC3)ccc21 [Example 19-12] | 0.022
O=C(CCC1CCN(Cc2ccccc2)CC1)c1ccc2c(c1)CCCCN2 [Example 19-20] | 0.125
CCN1CCc2cc(C(=O)CCC3CCN(Cc4ccccc4)CC3)ccc21 [Example 19-11] | 0.011
CCCCN1CCc2cc(C(=O)CCC3CCN(Cc4ccccc4)CC3)ccc21 [Example 19-13] | 0.029
O=C(CCC1CCN(Cc2ccccc2)CC1)c1ccc2c(c1)CCCN2Cc1ccccc1 [Example 3, 1-(Phenylmethyl)-6-[3-[1-(phenylmethyl)piperidin-4-yl]-1-oxopropyl]-1,2,3,4-tetrahydroquinoline dihydrochloride] | 0.12
O=C(CCC1CCN(Cc2ccccc2)CC1)c1ccc2c(c1)CCN2CCc1ccccc1 [Example 19-15] | 0.028
O=C(CCC1CCN(Cc2ccccc2)CC1)c1ccc2c(c1)CCO2 [Example 21, 2,3-Dihydro-5-[1-oxo-3-[1-(phenylmethyl)piperidin-4-yl]propyl]benzofuran hydrochloride] | 0.028
O=C(CCC1CCN(Cc2cccc(F)c2)CC1)c1ccc2c(c1)NCCCC2 [Example 19-21] | 0.145
O=C(CCC1CCN(Cc2ccccc2)CC1)c1ccc2c(c1)NCCC2 [Example 6-B, 7-[1-Oxo-3-[1-(phenylmethyl)piperidin-4-yl]propyl]-1,2,3,4-tetrahydroquinoline fumarate] | 0.054
CN1CCCc2cc(C(=O)CCC3CCN(Cc4ccccc4)CC3)ccc21 [Example 4, 1-Methyl-6-[3-[1-(phenylmethyl)piperidin-4-yl]-1-oxopropyl]-1,2,3,4-tetrahydroquinoline dihydrochloride] | 0.01
O=C(CCC1CCN(Cc2cccc(F)c2)CC1)c1ccc2c(c1)CCN2 [Example 19-8] | 0.016
CN1CCc2cc(C(=O)CCC3CCN(Cc4ccccc4)CC3)ccc21 [Example 14, 2,3-Dihydro-1-methyl-5-[1-oxo-3-[1-(phenylmethyl)-piperidin-4-yl]propyl]-1H-indole fumarate] | 0.01
O=C(CCC1CCN(Cc2ccccc2)CC1)c1ccc2c(c1)CCN2Cc1ccccc1 [Example 15, 2,3-Dihydro-5-[1-oxo-3-[1-(phenylmethyl)piperidin-4-yl]propyl]-1-(phenylmethyl)-1H-indole fumarate] | 0.068
Cc1cccc(CN2CCC(CCC(=O)c3ccc4c(c3)CCN4)CC2)c1 [Example 19-7] | 0.05
CN1CCc2ccc(C(=O)CCC3CCN(Cc4ccccc4)CC3)cc2CC1 [Example 23, 3-Methyl-7-[1-oxo-3-[1-(phenylmethyl)piperidin-4-yl]-propyl-2,3,4,5-tetrahydro-1H-3-benzazepinedihydrochloride] | 0.0065
O=C(CCC1CCN(Cc2ccccc2)CC1)c1ccc2c(c1)NCC2 [Example 25, 2,3-Dihydro-6-[1-oxo-3-[1-(phenylmethyl)piperidin-4-yl]propyl]-1H-indole fumarate] | 0.113
O=C(CCC1CCN(Cc2ccccc2)CC1)c1ccc2c(c1)NCCCCC2 [Example 27, 9-[1-Oxo-3-[1-(phenylmethyl)piperidin-4-yl]propyl]-1,2,3,4,5,6-hexahydro-1-benzazocine fumarate] | 0.127
O=C(CCC1CCN(Cc2ccccc2)CC1)c1ccc2c(c1)CCNCC2 [Example 22, 7-[1-Oxo-3-[1-(phenylmethyl)piperidin-4-yl]propyl]-2,3,4,5-tetrahydro-1H-3-benzazepine dihydrochloride] | 0.0076
O=C(CCC1CCN(Cc2ccccc2)CC1)c1ccc2c(c1)CCCN2Cc1ccccc1 [Example 10, 1-(Phenylmethyl)-6-[1-oxo-3-[1-(phenylmethyl)piperidin-4-yl]propyl]-1,2,3,4-tetrahydroquinoline fumarate] | 0.16
CCCCCN1CCc2cc(C(=O)CCC3CCN(Cc4ccccc4)CC3)ccc21 [Example 19-14] | 0.047
CN1CCCc2ccc(C(=O)CCC3CCN(Cc4ccccc4)CC3)cc21 [Example 8-B, 1-methyl-7-[1-oxo-3-[1-(phenylmethyl)piperidin-4-yl]propyl]-1,2,3,4-tetrahydroquinoline fumarate] | 0.036
O=C(CCC1CCN(Cc2ccccc2)CC1)c1ccc2c(c1)CCCN2 [Example 2, 6-[1-Oxo-3-[1-(phenylmethyl)piperidin-4-yl]propyl]-1,2,3,4-tetrahydroquinoline dihydrochloride] | 0.014
O=C(CCC1CCN(Cc2ccccc2)CC1)c1ccc2c(c1)CCCN2 [Example 6-A, 6-[1-Oxo-3-[1-(phenylmethyl)piperidin-4-yl]propyl]-1,2,3,4-tetrahydroquinoline fumarate] | 0.054
CN1CCCc2cc(C(=O)CCC3CCN(Cc4ccccc4)CC3)ccc21 [Example 8-A, 1-Methyl-6-[1-oxo-3-[1-(phenylmethyl)piperidin-4-yl]-propyl]-1,2,3,4-tetrahydroquinoline fumarate] | 0.024
CN1CCCCc2ccc(C(=O)CCC3CCN(Cc4ccccc4)CC3)cc21 [Example 19-17] | 0.081
O=C(CCC1CCN(Cc2ccccc2)CC1)c1ccc2c(c1)NCCCC2 [19-16] | 0.102
O=C(CCC1CCN(Cc2ccccc2)CC1)c1ccc2c(c1)CCN2 [Example 13, 2,3-Dihydro-5-[1-oxo-3-[1-(phenylmethyl)piperidin-4-yl]propyl]-1H-indole fumarate] | 0.02
CC(=O)N1CCCc2cc(C(=O)CCC3CCN(Cc4ccccc4)CC3)ccc21 [Example 16, 1-Acetyl-6-[1-oxo-3-[1-(phenylmethyl)piperidin-4-yl]propyl]-1,2,3,4-tetrahydroquinoline fumarate] | 0.014
